The source of these data is patent US9487546B2, “Solid forms of tenofovir” (Gilead Sciences, Inc., priority 2014, dated 2016).

Structures are written as SMILES.

Common to all, as to format: physicochemical
Data set [1] is described as follows: Thermogravimetric analysis (TGA) of Form I, dehydration. The settings on record: under nitrogen purge, 10° C./min. Here is the method: Thermogravimetric analysis (TGA) data was obtained using 2.01 mg PMPA Form I and was heated at a rate of 10° C./min over the range of 25 to 350° C. The solids lost about 6.1% water below 100° C., and the loss is very close to the theoretical water content of 5.9% for PMPA monohydrate.

A short description of data set [2]: XRPD patterns during heating (70, 80, 90° C.), form transition. The settings on record: XRPD patterns at 70, 80, and 90° C. during the heating period.
Data set [3] in a line: Storage of Form IV in a sealed vial, checked by XRPD. As to conditions: kept in a sealed vial at ambient temperature. The text has this: Form IV was obtained by keeping Form VI in water at ambient temperature for 3 weeks.

In the case of `C[C@H](Cn1cnc2c(N)ncnc21)OCP(=O)(O)O` [Form I, (R)-9-[2-(phosphonomethoxy)propyl]adenine], the “dehydration temperature (TGA)” value in data set [1] was “about 50 °C”. Also, the “transition from monohydrate (Form I) to an anhydrous form” value in data set [2] is “around 80 °C”.

In the case of `C[C@H](Cn1cnc2c(N)ncnc21)OCP(=O)(O)O` [Form IV, (R)-9-[2-(phosphonomethoxy)propyl]adenine], the “change of sample by XRPD analysis on storage” value in data set [3] is given as “did not change”.
